Results: ChEMBL document CHEMBL1201862, “PubChem BioAssay data set” (2004)
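Values below derive from 48-hour exposures of cells grown in 96-well plates, with endpoints linearly interpolated between the two concentrations bracketing the appropriate inhibition level. GI50 marks 50% less growth.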 Calls of active or inactive are those of the source. No stated cut-off is given here; in the data, active = GI50 up to about 1.1 µM and inactive = higher.

Key:
Assay in all cases: inhibition of tumour cell growth, NCI panel, 48 h
HOP-62 = tested on: HOP-62
PC-3 = tested on: PC-3
MOLT-4 = tested on: MOLT-4
KM12 = tested on: KM12
HOP-92 = tested on: HOP-92
MDA-N = tested on: MDA-N
RXF 393 = tested on: RXF 393
ACHN = tested on: ACHN
TK-10 = tested on: TK-10
K562 = tested on: K562
Hs-578T = tested on: Hs-578T
OVCAR-4 = tested on: OVCAR-4
SK-MEL-2 = tested on: SK-MEL-2
NCI-H23 = tested on: NCI-H23
A549 = tested on: A549
OVCAR-3 = tested on: OVCAR-3
SNB-19 = tested on: SNB-19
SF-295 = tested on: SF-295
MCF7 = tested on: MCF7
IGROV-1 = tested on: IGROV-1

Measured: GI50

CCCCNc1nc2ccccc2c2c1ncn2CC(C)C
inactive: HOP-62 > 100 µM | PC-3 > 100 µM | MOLT-4 > 100 µM | KM12 > 100 µM | HOP-92 > 100 µM | MDA-N > 100 µM | RXF 393 > 100 µM | ACHN > 100 µM | TK-10 > 100 µM | K562 > 100 µM | Hs-578T > 100 µM | OVCAR-4 > 100 µM | SK-MEL-2 > 100 µM | NCI-H23 > 100 µM | A549 > 100 µM | OVCAR-3 > 100 µM | SNB-19 > 100 µM | SF-295 > 100 µM | MCF7 > 100 µM | IGROV-1 > 100 µM

CCOC(=O)N/N=C(/N)c1cccc([N+](=O)[O-])c1
inactive: HOP-62 > 100 µM | PC-3 > 100 µM | MOLT-4 > 100 µM | KM12 > 100 µM | HOP-92 > 100 µM | MDA-N > 100 µM | RXF 393 > 100 µM | ACHN > 100 µM | TK-10 > 100 µM | K562 > 100 µM | Hs-578T > 100 µM | OVCAR-4 > 100 µM | SK-MEL-2 > 100 µM | NCI-H23 > 100 µM | A549 > 100 µM | OVCAR-3 > 100 µM | SNB-19 > 100 µM | SF-295 > 100 µM | MCF7 > 100 µM | IGROV-1 > 100 µM
